Consider two compounds from article PMC11858597, “Synthesis, Anticancer Screening, and In Silico Evaluations of Thieno[2,3-c]pyridine Derivatives as Hsp90 Inhibitors” (Pharmaceuticals, 2025).

The term IC50 denotes the midpoint of a concentration-inhibition curve. The term inhibition denotes how much of the control response was suppressed.

Each structure is given as a SMILES string.

The subject of data set [1] is RKO. As to the kind of experiment: MTT assay, RKO colorectal cancer cells. It is filed as cell-based. The conditions noted are these: 72 h. An excerpt:
(§1) An MTT assay was used to evaluate the final compounds’ anticancer activity against MCF7 and T47D (breast cancer cells), HSC3 (head and neck cancer cells), and RKO (colorectal cancer cells) cell lines, using cisplatin as a reference standard. Table 1 presents the percentage growth inhibition of all compounds against the various cancer cell lines.
(§2) The cancer cell lines MCF7 and T47D (breast cancer cells), HSC3 (head and neck cancer cells), and RKO (colorectal cancer cells) were kindly provided by Prof. Stephan Feller, Institute of Molecular Medicine, Martin Luther University, Halle, Germany. The human fibroblast (PDL) cell line was obtained as a kind gift from Prof. Khaled Al-Qaoud (Yarmouk University, Irbid, Jordan). All cell lines were cultured in Dulbecco’s Modified Eagle’s Medium (DMEM) supplemented with 10% fetal bovine serum, 100 µg/mL streptomycin, 100 U/mL penicillin, and 1% non-essential amino acid at 37 °C with 5% CO2 in a humidified CO2 incubator. The cell cultures were grown to confluence, and the medium was changed two times weekly.
(§3) The MTT (3-[4,5-dimethylthiazol-2-yl]-2,5-diphenyl tetrazolium bromide) assay was used to investigate cell viability and to calculate the half-maximal inhibitory concentration (IC50) values of the compounds 6(a–k) including standard reference cisplatin. Furthermore, […] stock solutions of the compounds were prepared in DMSO where all compounds were completely soluble. Cells were seeded in 96-well tissue culture plates at a density of 6,000 cells/well for MCF7, T47D, and PDL cells and at a density of 4000 cells/well for RKO and HSC3 cells. After 24 h of seeding, investigated cells were treated with three concentrations (1, 10, and 100 µm) of the compounds for 72 h. At the end of the treatment time, the supernatant medium was aspirated, and 50 µL of fresh DMEM containing MTT (0.5 mg/mL) was added to each well. Cells were then incubated at 37 °C for 2–4 h. After that, the medium was completely removed, and 50 µL of DMSO was added to each well to dissolve the precipitated formazan crystals formed by viable cells. Cell viability, represented by the absorbance of the formazan solution, was measured at 570 nm using the Synergy HTX Multimode Reader (BioTek, Vermont, USA), and cell viability was determined as described in the literature. For each concentration, the relative cell viability was calculated as follows: relative cell viability = (mean treatment absorbance/mean control absorbance) × 100%. Assays were performed in triplicate on three independent experiments. […] IC50 values were then calculated using the four-parameter logistic function in the SigmaPlot software (version 12.5) and presented as the mean ± SD from three independent experiments.

The subject of data set [2] is PDL. As to the kind of experiment: MTT assay, normal fibroblast cell line (PDL). Format: cell-based, human. The settings on record: 72 h; for IC50: PDL normal fibroblasts.
Text: To understand the selectivity of compounds, a normal fibroblast cell line (human periodontal ligament-PDL) is also included in this IC50 determination.
as §2, §3
(Tetrazolium assays rely on reduction of a dye to a coloured formazan, in cell work by metabolically active cells.)

The test system of data set [3] is T47D. As to the kind of experiment: MTT assay, T47D breast cancer cells. It is filed as cell-based. The conditions noted are these: 72 h.
Text: as §1, §2, §3

Data set [4] concerns MCF7. Description: MTT assay, MCF7 breast cancer cells. It is filed as cell-based. The settings on record: for IC50: MCF7, 72 h.
Text: as §1, §2, §3

For data set [5], the system named is HSC3. Description: MTT assay, HSC3 head and neck cancer cells. It is filed as cell-based. The settings on record: for IC50: HSC3, 72 h.
Text: as §1, §2, §3

Where [6] appears, read: Homo sapiens, 1 µM, read-out: % cell growth inhibition.
Setting [7] is: Homo sapiens, 10 µM, read-out: % cell growth inhibition.
Where [8] appears, read: Homo sapiens, 100 µM, read-out: % cell growth inhibition.

As to `N.N.[Cl][Pt][Cl]` [Cisplatin, reference compound], the “% cell growth inhibition” value is 46.06% in data set [1] (1 µM); 92.77% in data set [1] (10 µM); 95.04% in data set [1] (100 µM); 29.09% in data set [3] (1 µM); 89.65% in data set [3] (10 µM); 98.20% in data set [3] (100 µM). The “% cell growth inhibition” value in data set [4] (MCF7, 1 µM, 72 h) stood at 11.23%; in data set [4] (MCF7, 10 µM, 72 h), 57.32%; in data set [4] (MCF7, 100 µM, 72 h), 97.41%; in data set [5] (HSC3, 1 µM, 72 h), 29.33%; in data set [5] (HSC3, 10 µM, 72 h), 84.74%; in data set [5] (HSC3, 100 µM, 72 h), 97.87%. In addition, the IC50 amounted to 1.7 ± 0.4 µM in data set [1]; 15.5 ± 2.1 µM in data set [2]; 2.6 ± 0.6 µM in data set [3]; 5.8 ± 0.9 µM in data set [4]; 2.7 ± 0.2 µM in data set [5].
`CCOC(=O)c1c(NC(=O)CN2CCCCC2)sc2c1CCN(C(=O)OCC)C2` [6a]: the inhibition at 1 µM in data set [1] (setting [6]) turned out to be 5.71%; in data set [3] (setting [6]), 9.31%; in data set [4] (Homo sapiens, MCF7, 1 µM, 72 h, read-out: % cell growth inhibition), 2.96%; in data set [5] (Homo sapiens, HSC-3, 72 h, HSC3, 1 µM, 72 h, read-out: % cell growth inhibition), 4.26%. Also, the inhibition at 10 µM came to 53% in data set [1] (setting [7]); 38.6% in data set [3] (setting [7]); 39.5% in data set [4] (Homo sapiens, MCF7, 10 µM, 72 h, read-out: % cell growth inhibition); 59.8% in data set [5] (Homo sapiens, HSC-3, 72 h, HSC3, 10 µM, 72 h, read-out: % cell growth inhibition). In addition, the inhibition at 100 µM in data set [1] (setting [8]) was 93.5%; in data set [3] (setting [8]) it was 88.1%; in data set [4] (Homo sapiens, MCF7, 100 µM, 72 h, read-out: % cell growth inhibition) it was 91.6%; in data set [5] (Homo sapiens, HSC-3, 72 h, HSC3, 100 µM, 72 h, read-out: % cell growth inhibition) it was 92.6%. Besides, the IC50 is 24.4 ± 7.2 µM in data set [1] (Homo sapiens); greater than 100 µM in data set [2] (Homo sapiens, Fibroblast); 97.2 ± 4.4 µM in data set [3] (Homo sapiens); 73.7 ± 4.3 µM in data set [4] (Homo sapiens); 14.5 ± 4.3 µM in data set [5] (Homo sapiens, HSC-3). Moreover, in data set [2] (PDL), the “toxicity to normal fibroblast cell lines, PDL” value is reported as “no toxicity”. Further, the “% cell growth inhibition” value in data set [4] (MCF7, 1 µM, 72 h) is on record as “weak inhibition”.
